Measurements as given in patent US20180057507A1, “INHIBITORS OF DUAL LEUCINE ZIPPER (DLK) KINASE FOR THE TREATMENT OF DISEASE” (Board of Regents, The University of Texas System, priority 2016, published 2018).

Experiments:
human DLK [1] = target: T1, human DLK (Homo sapiens, UniProt Q12852); experiment: DLK Kd Determinations (KINOMEscan KdELECT, DiscoveRx); set-up: full length of human DLK (amino acids 1-859); host or cells: transiently transfected HEK293 cells; unpurified extract; conditions: fusion protein of full length human DLK (amino acids 1-859) and NFkB DNA binding domain; qPCR readout; duplicate
T1 sequence (Q12852 1-859): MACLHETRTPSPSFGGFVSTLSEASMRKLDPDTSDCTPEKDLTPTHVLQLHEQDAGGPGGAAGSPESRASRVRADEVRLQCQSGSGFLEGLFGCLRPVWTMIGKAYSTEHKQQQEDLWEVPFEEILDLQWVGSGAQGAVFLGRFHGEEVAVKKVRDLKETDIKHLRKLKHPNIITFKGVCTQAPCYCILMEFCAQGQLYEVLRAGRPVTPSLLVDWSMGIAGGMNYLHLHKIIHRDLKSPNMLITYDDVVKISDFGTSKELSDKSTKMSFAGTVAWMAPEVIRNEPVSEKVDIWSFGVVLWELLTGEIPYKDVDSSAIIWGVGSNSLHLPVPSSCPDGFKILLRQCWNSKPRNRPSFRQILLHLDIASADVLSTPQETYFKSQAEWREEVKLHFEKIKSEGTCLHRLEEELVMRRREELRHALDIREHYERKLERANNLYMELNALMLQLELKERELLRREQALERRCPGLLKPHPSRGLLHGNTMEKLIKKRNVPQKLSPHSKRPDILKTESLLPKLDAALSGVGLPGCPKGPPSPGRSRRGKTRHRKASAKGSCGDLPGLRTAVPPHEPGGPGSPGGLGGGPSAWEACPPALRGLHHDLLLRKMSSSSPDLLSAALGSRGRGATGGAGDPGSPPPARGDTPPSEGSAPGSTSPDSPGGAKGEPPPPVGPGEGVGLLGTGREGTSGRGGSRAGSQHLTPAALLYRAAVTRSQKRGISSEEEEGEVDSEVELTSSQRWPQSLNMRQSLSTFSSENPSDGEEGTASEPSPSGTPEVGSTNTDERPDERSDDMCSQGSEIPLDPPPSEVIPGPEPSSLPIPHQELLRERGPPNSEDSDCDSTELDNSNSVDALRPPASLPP
Summary of the method: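 Kd values were fitted by Hill equation (slope −1) from duplicate 11-point 3-fold dilutions starting at 30,000 nM. Bead-immobilized ligand competed with compound for DNA-tagged full-length human DLK fusion in HEK293 extract (final DMSO 0.9%, 1 h, room temperature), with qPCR readout of bound kinase.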

human DLK [2] = target: T1, human DLK; experiment: Phospho-cJun Cellular Assay; format: cell-based; set-up: expressed in transfected cells; conditions: HEK293 cells stably transfected with Dox-inducible human DLK; p-cJun (Ser63); 5 h compound incubation
Description: Phospho-cJun Cellular Assay
HEK293 cells stably transfected with a Dox-inducible human DLK were plated into a 384-well plate in 20 μl (40,000 cells/well) of DMEM medium (without phenol red) containing 10% fetal bovine serum, 1.5 μg/ml doxycycline and 1 μg/ml puromycin. The cells as negative control were grown in the absence of doxycycline. The plate was incubated at 37° C., 5% CO2 for 20 h, before DMSO (control) or compounds diluted in medium were added. The cells were incubated at 37° C. for an additional 5 h, followed by lysis and the addition detection antibodies from p-cJun (Ser63) cellular assay kit (Cisbio) per manufacturer protocol. The standard dose response curves were fitted by Genedata Screener software using the variable-slope model: Signal=Signalnegative control+(SignalDMSO control−Signalnegative control)/(1+(IC50/Dose)̂Hill slope). Only signal and dose in the equation were treated as known values.

Row | Kd (human DLK [1]) [nM] | IC50 (human DLK [2]) [nM] | SMILES
1 | 19 | 1510 | CC(C)c1nc(-c2cnc(N)c(C(F)(F)F)c2)cn1[C@H]1[C@@H]2CC(N3CCOC[C@@H]3C)C[C@@H]21 (stereo partly drawn) [Example 143, 5-(2-isopropyl-1-(3-((S)-3-methylmorpholino)bicyclo[3.1.0]hexan-6-yl)-1H-imidazol-4-yl)-3-(trifluoromethyl)pyridin-2-amine]
2 | 23 | 1010 | Nc1ncc(-c2cn([C@H]3[C@@H]4CC(N5CCOCC5)C[C@@H]43)c(CC3CC3)n2)cc1C(F)(F)F (single isomer, unassigned) [Example 138a, 5-(2-(cyclopropylmethyl)-1-(3-morpholinobicyclo[3.1.0]hexan-6-yl)-1H-imidazol-4-yl)-3-(trifluoromethyl)pyridin-2-amine]
3 | 53 | 1440 | Nc1ncc(-c2cn([C@H]3[C@@H]4CN(CCF)C[C@@H]43)c(CC3CC3)n2)cc1OC(F)F [Example 116, 5-(2-(cyclopropylmethyl)-1-((1R,5S,6s)-3-(2-fluoroethyl)-3-azabicyclo[3.1.0]hexan-6-yl)-1H-imidazol-4-yl)-3-(difluoromethoxy)pyridin-2-amine]
4 | 17 | 1490 | Nc1ncc(-c2cn([C@H]3[C@@H]4CN(CCF)C[C@@H]43)c(CC3CC3)n2)cc1C(F)(F)F [Example 77, 5-(2-(cyclopropylmethyl)-1-((1R,5S,6s)-3-(2-fluoroethyl)-3-azabicyclo[3.1.0]hexan-6-yl)-1H-imidazol-4-yl)-3-(trifluoromethyl)pyridin-2-amine]
5 | 12.3 | 1200 | Nc1ncc(-c2cn([C@H]3[C@@H]4CN(CCF)C[C@@H]43)c(C3CC3)n2)cc1C(F)(F)F [Example 95, 5-(2-cyclopropyl-1-((1R,5S,6s)-3-(2-fluoroethyl)-3-azabicyclo[3.1.0]hexan-6-yl)-1H-imidazol-4-yl)-3-(trifluoromethyl)pyridin-2-amine]
6 | 49 | 1550 | CC(C)Cc1nc(-c2cnc(N)c(OC(F)(F)F)c2)cn1[C@H]1[C@@H]2CC(N3CCN(CCF)CC3)C[C@@H]21 (single isomer, unassigned) [Example 159b, 5-(1-(3-(4-(2-fluoroethyl)piperazin-1-yl)bicyclo[3.1.0]hexan-6-yl)-2-isobutyl-1H-imidazol-4-yl)-3-(trifluoromethoxy)pyridin-2-amine]
7 | 18 | 550 | CCC(O)c1nc(-c2cnc(N)c(C(F)(F)F)c2)cn1C1CCC1 (centres unmarked) [Example 22, 1-(4-(6-amino-5-(trifluoromethyl)pyridin-3-yl)-1-cyclobutyl-1H-imidazol-2-yl)propan-1-ol]
8 | 13 | 1150 | Nc1ncc(-c2cn([C@H]3[C@@H]4CC(N5CCN(CCF)CC5)C[C@@H]43)c(CC3CC3)n2)cc1OC(F)(F)F (single isomer, unassigned) [Example 152b, 5-(2-(cyclopropylmethyl)-1-(3-(4-(2-fluoroethyl)piperazin-1-yl)bicyclo[3.1.0]hexan-6-yl)-1H-imidazol-4-yl)-3-(trifluoromethoxy)pyridin-2-amine]
9 | 76 | 666 | CC(C)c1nc(-c2cnc(N)c(OC(F)(F)F)c2)cn1[C@H]1[C@@H]2CC(N3CCOCC3)C[C@@H]21 (single isomer, unassigned) [Example 19a]
10 | 71 | 994 | Nc1ncc(-c2cn([C@H]3[C@@H]4CN(C5CCOCC5)C[C@@H]43)c(CC3CC3)n2)cc1OC(F)F [Example 88, 5-(2-(cyclopropylmethyl)-1-((1R,5S,6s)-3-(tetrahydro-2H-pyran-4-yl)-3-azabicyclo[3.1.0]hexan-6-yl)-1H-imidazol-4-yl)-3-(difluoromethoxy)pyridin-2-amine]
11 | 34 | 823 | CC(C)Cc1nc(-c2cnc(N)c(C(F)(F)F)c2)cn1[C@H]1[C@@H]2CN(CCF)C[C@@H]21 [Example 126, 5-(1-((1R,5S,6s)-3-(2-fluoroethyl)-3-azabicyclo[3.1.0]hexan-6-yl)-2-isobutyl-1H-imidazol-4-yl)-3-(trifluoromethyl)pyridin-2-amine]
12 | 21 | 645 | CC(C)c1nc(-c2cnc(N)c(OC(F)(F)F)c2)cn1[C@H]1[C@@H]2CC(N3CCN(C)CC3)C[C@@H]21 (single isomer, unassigned) [Example 133b, 5-(2-isopropyl-1-(3-(4-methylpiperazin-1-yl)bicyclo[3.1.0]hexan-6-yl)-1H-imidazol-4-yl)-3-(trifluoromethoxy)pyridin-2-amine]
13 | 23 | 893 | CC1COCCN1C1CC2C(C1)C2n1cc(-c2cnc(N)c(OC(F)(F)F)c2)nc1C1CC1 (centres unmarked) [Example 147, 5-(2-cyclopropyl-1-(3-(3-methylmorpholino)bicyclo[3.1.0]hexan-6-yl)-1H-imidazol-4-yl)-3-(trifluoromethoxy)pyridin-2-amine]
14 | 8.7 | 775 | CC(C)Cc1nc(-c2cnc(N)c(C(F)(F)F)c2)cn1[C@H]1[C@@H]2CC(N3CCN(CCF)CC3)C[C@@H]21 (single isomer, unassigned) [Example 160b, 5-(1-(3-(4-(2-fluoroethyl)piperazin-1-yl)bicyclo[3.1.0]hexan-6-yl)-2-isobutyl-1H-imidazol-4-yl)-3-(trifluoromethyl)pyridin-2-amine]
15 | 160 | 1610 | CCCc1nc(-c2cnc(N)c(C(F)(F)F)c2)cn1[C@H]1[C@@H]2CN(CCF)C[C@@H]21 [Example 84, 5-(1-((1R,5S,6s)-3-(2-fluoroethyl)-3-azabicyclo[3.1.0]hexan-6-yl)-2-propyl-1H-imidazol-4-yl)-3-(trifluoromethyl)pyridin-2-amine]
16 | 37 | 544 | Nc1ncc(-c2cn([C@H]3[C@@H]4CC(N5CCOCC5)C[C@@H]43)c(C3CC3)n2)cc1OC(F)(F)F (single isomer, unassigned) [Example 139a, 5-(2-cyclopropyl-1-(3-morpholinobicyclo[3.1.0]hexan-6-yl)-1H-imidazol-4-yl)-3-(trifluoromethoxy)pyridin-2-amine]
17 | 22 | 891 | Nc1ncc(-c2cn([C@H]3[C@@H]4CC(N5CCN(CCF)CC5)C[C@@H]43)c(C3CC3)n2)cc1C(F)(F)F (single isomer, unassigned) [Example 153a, 5-(2-cyclopropyl-1-(3-(4-(2-fluoroethyl)piperazin-1-yl)bicyclo[3.1.0]hexan-6-yl)-1H-imidazol-4-yl)-3-(trifluoromethyl)pyridin-2-amine]
18 | 71 | 1850 | Nc1ncc(-c2cn([C@H]3[C@@H]4CN(C5CCOCC5)C[C@@H]43)c(CC(F)(F)F)n2)cc1C(F)(F)F [Example 119, 5-(1-((1R,5S,6s)-3-(tetrahydro-2H-pyran-4-yl)-3-azabicyclo[3.1.0]hexan-6-yl)-2-(2,2,2-trifluoroethyl)-1H-imidazol-4-yl)-3-(trifluoromethyl)pyridin-2-amine]
19 | 22 | 710 | CC1COCCN1C1C[C@@H]2[C@H](C1)[C@H]2n1cc(-c2cnc(N)c(OC(F)(F)F)c2)nc1C1CC1 (some centres unmarked) [Example 148, 5-(2-cyclopropyl-1-(3-(3-methylmorpholino)bicyclo[3.1.0]hexan-6-yl)-1H-imidazol-4-yl)-3-(trifluoromethoxy)pyridin-2-amine]
